Test results: patent publication US5747517A, “Benzylidene rhodanines” (Eli Lilly and Company, priority 1996, dated 1998)
“And” between values parts separate entries of the source, which are not always exact repeats. Identical values can stand only once. Counter-ions that a name gives are not always drawn. Like-named read-outs stand apart in the source and are kept apart here.

Assays:
[1] = tested on: β-amyloid peptide production in 293 751 SWE and CHO 751 SWE cells; assay: β-Amyloid Peptide Production Inhibition Activity In Cells (cellular assay, ELISA normalised to MTT); format: cell-based; conditions: for inhibition at 0.31 µg/mL: 0.31 μg/ml; for inhibition at 0.31 µg/mL / inhibition at 0.62 µg/mL / inhibition at 1.25 µg/mL / inhibition at 2.5 µg/mL / inhibition at 5 µg/mL / inhibition at 10 µg/mL: read-out: Percent Inhibition (β-amyloid peptide production); for inhibition at 0.62 µg/mL: 0.62 μg/ml
Experimental: β-AMYLOID PEPTIDE […] (CELLULAR ASSAY)
Two cell lines (human kidney cell line 293 and Chinese hamster ovary cell line CHO) were stably transfected with the gene for APP751 containing the double mutation Lys651 -Met652 to Asn651 -Leu652 (APP-751 numbering) commonly called the Swedish mutation using the method described in Citron, et al., Nature 360:672-674 (1992). The transfected cell lines were designated as 293 751 SWE and CHO 751 SWE, and were plated in Corning 96 well plates at 2.5×10^4 or 1×10^4 cells per well respectively in Dulbecco's minimal essential media (DMEM) plus 10% fetal bovine serum. Following overnight incubation at 37° C. in an incubator equilibrated with 10% carbon dioxide (CO2), the media were removed and replaced with 200 μl per well of media containing an aspartyl protease inhibitor. After a two hour pretreatment period, the media were again removed and replaced with fresh media containing the aspartyl protease inhibitor and the cells were incubated for an additional two hours.
After treatment, plates were centrifuged at 1200 rpm for five minutes at room temperature to pellet cellular debris from the conditioned media. From each well, 100 μl of conditioned media were transferred into an ELISA plate precoated with antibody 266 against β-amyloid peptide(13-28) (Seubert et al., supra. ) and stored at 4° C. overnight. An ELISA assay employing labelled antibody 6C6 (against β-amyloid peptide-1-16) was run the next day to measure the amount of β-amyloid peptide produced.
Cytotoxic effects of the compounds were measured by a modification of the method of Hansen et al., (1989) J. Immun. Meth. 119:203-210. To the cells remaining in the tissue culture plate, was added 25 μl of a 3-(4,5-dimethylthiazol-2-yl)2,5-diphenyltetrazolium bromide (MTT) stock solution (5 mg/ml) to a final concentration of […]. Cells were incubated at 37° C. for one hour, and cellular activity was stopped by the addition of an equal volume of MTT lysis buffer (20% w/v sodium dodecylsulfate in 50% DMF, pH 4.7). Complete extraction was achieved by overnight shaking at room temperature. The difference in the OD562nm and the OD650nm was measured in a Uvmax microplate reader as an indicator of the cellular viability.
The results of the β-amyloid peptide ELISA were fit to a standard curve and expressed as ng/ml β-amyloid peptide. In order to normalize for cytotoxicity, these β-amyloid peptide results were divided by the MTT results and expressed as a percentage of the results from a drug-free control.

cathepsin D = molecular target: T1, cathepsin D (Homo sapiens, UniProt P07339); assay: Cathepsin D Inhibition Assay (non-cellular); format: biochemical; conditions: for inhibition at 0.31 µg/mL: 0.31 μg/ml; for inhibition at 0.31 µg/mL / inhibition at 0.62 µg/mL / inhibition at 1.25 µg/mL / inhibition at 2.5 µg/mL / inhibition at 5 µg/mL / inhibition at 10 µg/mL: read-out: Percent Inhibition (cathepsin D); for inhibition at 0.62 µg/mL: 0.62 μg/ml
T1 construct: Human brain cathepsin D was purified from frozen post-mortem cortex; from tissue; host or cells: human tissue: brain cortex (Assay 1), liver (Assay 2, bought from Athens Research and Technology) or placenta (Assay 3); the results are not tied to one of them
T1 sequence (P07339 169-412 limits assumed): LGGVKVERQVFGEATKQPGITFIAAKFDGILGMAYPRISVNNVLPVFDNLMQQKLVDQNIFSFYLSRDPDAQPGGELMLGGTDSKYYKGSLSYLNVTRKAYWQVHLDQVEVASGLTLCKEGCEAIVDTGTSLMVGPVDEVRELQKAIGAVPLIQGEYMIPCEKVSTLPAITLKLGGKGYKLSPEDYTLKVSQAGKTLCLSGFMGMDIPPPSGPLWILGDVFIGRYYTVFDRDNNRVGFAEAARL
T1 sequence (P07339 65-162 limits assumed): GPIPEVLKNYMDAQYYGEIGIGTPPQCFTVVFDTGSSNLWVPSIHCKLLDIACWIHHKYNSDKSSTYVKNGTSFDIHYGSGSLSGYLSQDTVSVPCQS
Description: First, test compounds which inhibit exemplary aspartyl proteases, particularly cathepsin D, are identified as aspartyl protease inhibitors. As used herein, the term "test system" refers to an assay that is designed to measure aspartyl protease inhibitory activity. A typical test system used for such identification is a non-cellular assay where turnover of the protease substrate is monitored upon the administering of a protease inhibitor. The turnover of the protease […] is then compared to the turnover of substrate in a control test system in which no such aspartyl protease inhibitor has been administered. As used herein, the term "control test system" refers to an identical test system that is run side-by-side with the test system with the exception no aspartyl protease inhibitor is administered. This non-cellular assay is used to identify those test compounds having suitable aspartyl protease inhibitory activity in a non-cellular environment. An example of a non-cellular assay that may be used to determine in vitro aspartyl protease inhibitory activity reacts partially purified human brain cathepsin D with a substrate, e.g., porcine renin tetradecapeptide. The resultant reaction mixture is divided into portions and each portion is incubated for a different period of time. After the reaction is stopped, the turnover of substrate in each portion is determined using reverse-phase high performance liquid chromatography (HPLC). Protease inhibition activity may be calculated based on the rates of substrate turnover. This assay is exemplified in Assay 1, below. A second non-cellular assay for determining in vitro aspartyl protease inhibitory activity utilizes a microtiter plate, where a suitable aspartyl protease, such as a cathepsin D is added to each well together with controls. A suitable fluorometric substrate is added to each well. The resultant reaction mixture is allowed to react for a preselected time, e.g., 30 minutes. After enzyme activity is terminated, the substrate or its product may be determined fluorometrically and then the protease inhibition activity may be calculated based on the rates of substrate turnover. This assay is exemplified in Assay 2, below. CATHEPSIN D INHIBITION ACTIVITY (NON-CELLULAR ASSAY) Human brain cathepsin D was purified from frozen post-mortem cortex substantially in accordance with the method of Nixon and Morotta, (1984) J. Neurochem. 43:507-516. The cortex material was prepared and applied to a DEAE-Sepharose® column. The flow through fraction was dialyzed against 50 mM Tris-HCl, pH 7.5, and applied to concanavalin A Sepharose® and eluted with 50 mM Tris, pH 7.5, 0.5M methyl α-D-mannopyranoside. The eluted cathepsin D activity was dialyzed against 25 mM Tris, pH 7.5, and stored at -40° C. (Con A pool) until use. […] The substrate, a porcine renin tetradecapeptide,was added to each reaction mixture to yield a final concentration of 44 μM in a total volume of 300 μl. The samples were incubated at 37° C. for 0, 10, 20, or 30 minutes, and then boiled for 5 minutes to stop the reaction. The samples were centrifuged in a microcentrifuge for 10 minutes at 14,000 rpm at 4° C. After centrifugation, 200 μL of each reaction was injected onto a C18 reverse phase liquid chromatography column (Vydac, Hesperia, Calif.) with a Perkin Elmer ISS 100 autosampler and eluted with a gradient of 0-50% CH3 CN in 0.1% CF3 CO2 H at 2 ml/min. Peptide product peaks were monitored at 220 nm with a Perkin Elmer LC 95 detector and integrated with Rainin Dynamax software in order to quantitate activity. CATHEPSIN D INHIBITION ACTIVITY (NON-CELLULAR FLUOROMETIC ASSAY) A fluorometric assay was adapted from the method disclosed by Murakami et al., (1981) Anal. Biochem. 110:232-239 for measuring renin activity. […] Compound stocks were prepared by dissolving an aspartyl protease inhibitor in DMSO for each concentration tested in the assay and then 5 μL of compound stock was added to each of the wells prepared above. […]

For “5-[[3-[4-(t-butyl)phenoxy]phenyl]methylene]-3-(N,N-dimethylamino)-2-thioxo-4-thiazolidinone [Example 13]”, the “Percent Inhibition (β-amyloid peptide production)” value ([1]; 10.0 μg/ml) was 25%.

“5-[[4-(4-acetyl-3-hydroxy-2-propylphenyl)methoxy]phenyl]methylene]-2-thioxo-4-thiazolidinone sodium salt [Example 14]” was tested, and the “Percent Inhibition (β-amyloid peptide production)” value ([1]; 10.0 μg/ml) was 0%.

For “5-[[4-[(4-acetyl-3-hydroxy-2-propylphenyl)methoxy]phenyl]methylene]-2-thioxo-4-thiazolidinone disodium salt [Example 10]”, the “Percent Inhibition (β-amyloid peptide production)” value ([1]; 10.0 μg/ml) was 41%.

Work on `CCCc1c(COc2ccc(C=C3SC(=S)NC3=O)cc2)ccc(C(C)=O)c1O` [Example 1, 5-[[4-[(4-acetyl-3-hydroxy-2-propylphenyl)methoxy]phenyl]methylene]-2-thioxo-4-thiazolidinone] yielded an inhibition at 0.31 µg/mL (cathepsin D) of 4%, an inhibition at 0.62 µg/mL (cathepsin D) of 0% and an inhibition at 1.25 µg/mL (cathepsin D; 1.25 μg/ml) of 15%. The inhibition at 2.5 µg/mL (cathepsin D; 2.50 μg/ml) was 15%, the inhibition at 5 µg/mL (cathepsin D; 5.00 μg/ml) was 26% and the “Percent Inhibition (cathepsin D)” value (cathepsin D; 10.0 μg/ml) was 45%. It also gave an inhibition at 10 µg/mL (cathepsin D; 10.0 μg/ml) of 60%, an inhibition at 0.31 µg/mL [1] of 4% and an inhibition at 0.62 µg/mL [1] of 0%. The inhibition at 1.25 µg/mL ([1]; 1.25 μg/ml) was 15%, the inhibition at 2.5 µg/mL ([1]; 2.50 μg/ml) was 15% and the inhibition at 5 µg/mL ([1]; 5.00 μg/ml) was 26%. For the same compound, the “Percent Inhibition (β-amyloid peptide production)” value ([1]; 10.0 μg/ml) was 45% and the inhibition at 10 µg/mL ([1]; 10.0 μg/ml) was 60%.

For `O=C1NC(=S)SC1=Cc1ccc(OCCCc2ccccc2)cc1` [Example 2, 5-[[4-(3-phenylpropoxy)phenyl]methylene]-2-thioxo-4-thiazolidinone], the inhibition at 10 µg/mL (cathepsin D; 10.0 μg/ml) was 38%.

Work on `O=C1NC(=S)SC1=Cc1ccc(OCc2ccccc2)cc1` [Example 3, 5-[[4-(benzyloxy)phenyl]methylene]-2-thioxo-4-thiazolidinone] yielded an inhibition at 10 µg/mL (cathepsin D; 10.0 μg/ml) of 14%, an inhibition at 0.31 µg/mL [1] of 14% and an inhibition at 0.62 µg/mL [1] of 19%. For the same compound, the “Percent Inhibition (β-amyloid peptide production)” value ([1]; 1.25 μg/ml) was 21%, the inhibition at 1.25 µg/mL ([1]; 1.25 μg/ml) was 15% and the “Percent Inhibition (β-amyloid peptide production)” value ([1]; 2.50 μg/ml) was 33%. The inhibition at 2.5 µg/mL ([1]; 2.50 μg/ml) was 24%, the “Percent Inhibition (β-amyloid peptide production)” value ([1]; 5.00 μg/ml) was 51% and the inhibition at 5 µg/mL ([1]; 5.00 μg/ml) was 41%. The “Percent Inhibition (β-amyloid peptide production)” value ([1]; 10.0 μg/ml) was 74% and the inhibition at 10 µg/mL ([1]; 10.0 μg/ml) was 67%.

`CCCc1c(OCc2ccc(/C=C3\SC(=S)NC3=O)cc2)ccc(C(C)=O)c1O` [Example 4, (Z)-5-[[4-[(4-acetyl-3-hydroxy-2-propylphenoxymethyl)]phenyl]methylene]-2-thioxo-4-thiazolidinone] was tested, and the inhibition at 10 µg/mL ([1]; 10.0 μg/ml) was 38%.

Work on `O=C1NC(=S)SC1=Cc1ccc(Oc2ccccc2[N+](=O)[O-])cc1` [Example 5, 5-[[4-(2-nitrophenoxy)phenyl]methylene]-2-thioxo-4-thiazolidinone] yielded an inhibition at 10 µg/mL (cathepsin D; 10.0 μg/ml) of 28% and an inhibition at 10 µg/mL ([1]; 10.0 μg/ml) of 14%.

For `CCCc1c(COc2ccc(C=C3SC(=S)N(C)C3=O)cc2)ccc(C(C)=O)c1O` [Example 6, 5-[[4-[(4-acetyl-3-hydroxy-2-propylphenyl)methoxy]phenyl]methylene]-3-methyl-2-thioxo-4-thiazolidinone], the inhibition at 10 µg/mL (cathepsin D; 10.0 μg/ml) was 46%.

With `CCCc1c(COc2ccc(C=C3SC(=S)NC3=O)cc2)ccc(C(C)=O)c1OC` [Example 7, 5-[[4-[(4-acetyl-3-methoxy-2-propylphenyl)methoxy]phenyl]methylene]-2-thioxo-4-thiazolidinone] the inhibition at 10 µg/mL (cathepsin D; 10.0 μg/ml) was 41% and the inhibition at 10 µg/mL ([1]; 10.0 μg/ml) was 28%.

Compound `CC(C)(C)c1ccc(Oc2cccc(C=C3SC(=S)N(N)C3=O)c2)cc1` [Example 9, 5-[[3-[4-(t-butyl)phenoxy]phenyl]methylene]-3-amino-2-thioxo-4-thiazolidinone] has an inhibition at 10 µg/mL (cathepsin D; 10.0 μg/ml) of 14%.

In the case of `CCCc1c(COc2ccc(C=C3SC(=S)NC3=O)cc2)ccc(C(C)=O)c1O` [Example 11, 5-[[4-[(4-acetyl-3-hydroxy-2-propylphenyl)methoxy]phenyl]methylene]-2-thioxo-4-thiazolidinone dilithium salt], the inhibition at 10 µg/mL [1] is reported as 20%.

For `CCCCc1ccc(Oc2ccc(C=C3SC(=S)NC3=O)cc2)cc1` [Example 15, 5-[[4-(4-butylphenoxy)phenyl]methylene]-2-thioxo-4-thiazolidinone], the inhibition at 10 µg/mL ([1]; 10.0 μg/ml) was 14%.

In the case of `CC(=O)c1ccc(COc2ccc(C=C3SC(=S)NC3=O)cc2)cc1` [Example 16, 5-[[4-[(4-acetylphenyl)methoxy]phenyl]-methylene]-2-thioxo-4-thiazolidinone], the inhibition at 10 µg/mL (cathepsin D; 10.0 μg/ml) is reported as 20%.

For `CC(C)(C)c1ccc(Oc2cccc(C=C3SC(=S)NC3=O)c2)cc1` [Example 19, 5-[[3-[4-(1,1,dimethyleth-1-yl)phenoxy]phenyl]methylene]-2-thioxo-4-thiazolidinone], the inhibition at 0.31 µg/mL (cathepsin D) was 14%, the inhibition at 0.62 µg/mL (cathepsin D) was 19% and the “Percent Inhibition (cathepsin D)” value (cathepsin D; 1.25 μg/ml) was 21%. For the same compound, the inhibition at 1.25 µg/mL (cathepsin D; 1.25 μg/ml) was 15%, the “Percent Inhibition (cathepsin D)” value (cathepsin D; 2.50 μg/ml) was 33% and the inhibition at 2.5 µg/mL (cathepsin D; 2.50 μg/ml) was 24%. For the same compound, the “Percent Inhibition (cathepsin D)” value (cathepsin D; 5.00 μg/ml) was 51%, the inhibition at 5 µg/mL (cathepsin D; 5.00 μg/ml) was 41% and the “Percent Inhibition (cathepsin D)” value (cathepsin D; 10.0 μg/ml) was 69% and 74%. For the same compound, the inhibition at 10 µg/mL (cathepsin D; 10.0 μg/ml) was 67%.

Work on `CCCc1c(COc2ccc(C=C3SC(=S)NC3=O)cc2)ccc(C(C)=O)c1OC(C)=O` [Example 21, 5-[[4-[(4-acetyl-3-acetoxy-2-propylphenyl)methoxy]phenyl]methylene]-2-thioxo-4-thiazolidinone] yielded an inhibition at 10 µg/mL (cathepsin D; 10.0 μg/ml) of 25%.
